{"source": "patent US11053204B2", "about": "“Pyrimidinyloxy benzene derivatives as herbicides” (FMC Corporation, priority 2015, dated 2021)", "type_in_all_cases": "in vivo", "key": {"[1]": {"test_system": "oat, wild (wild oat Avena fatua)", "assay": "Test C postemergence, plant response rating", "details": "for Plant response rating, Oat, Wild: scale 0 to 100; for Oat, Wild plant response rating: scale 0 to 100 (0 no effect, 100 complete control)", "method_in_brief": "(§1)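 Preemergence: seeds sown in loam–sand blend or silt loam and sprayed with test chemicals in a non-phytotoxic surfactant-containing solvent. Postemergence: potted plants at 2–18 cm (1–4-leaf stage) sprayed with the same formulation. After 13–15 d in greenhouse, visual rating versus controls on 0 (no effect) to 100 (complete control) scale.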"}, "[2]": {"test_system": "waterhemp (common waterhemp, Amaranthus rudis)", "assay": "Test C postemergence, plant response rating", "details": "for Plant response rating, Waterhemp: scale 0 to 100; for Waterhemp plant response rating: scale 0 to 100 (0 no effect, 100 complete control)", "method_in_brief": "as §1"}, "[3]": {"test_system": "foxtail, giant (giant foxtail, Setaria faberii)", "assay": "Test C postemergence, plant response rating", "details": "for Plant response rating, Foxtail, Giant: scale 0 to 100; for Foxtail, Giant plant response rating: scale 0 to 100 (0 no effect, 100 complete control)", "method_in_brief": "as §1"}, "soybean (Glycine max)": {"test_system": "soybean (Glycine max)", "assay": "Test C postemergence, plant response rating", "details": "for Plant response rating, Soybean: scale 0 to 100; for Soybean plant response rating: scale 0 to 100 (0 no effect, 100 complete control)", "method_in_brief": "as §1"}, "[4]": {"test_system": "velvetleaf (Abutilon theophrasti)", "assay": "Test C postemergence, plant response rating", "details": "for Plant response rating, Velvetleaf: scale 0 to 100; for Velvetleaf plant response rating: scale 0 to 100 (0 no effect, 100 complete control)", "method_in_brief": "as §1"}, "[5]": {"test_system": "ragweed (common ragweed, Ambrosia elatior)", "assay": "Test C postemergence, plant response rating", "details": "for Plant response rating, Ragweed: scale 0 to 100; for Ragweed plant response rating: scale 0 to 100 (0 no effect, 100 complete control)", "method_in_brief": "as §1"}, "[6]": {"test_system": "chickweed (common chickweed, Stellaria media)", "assay": "Test C postemergence, plant response rating", "details": "for Plant response rating, Chickweed: scale 0 to 100; for Chickweed plant response rating: scale 0 to 100 (0 no effect, 100 complete control)", "method_in_brief": "as §1"}, "[7]": {"test_system": "lambsquarters (Chenopodium album)", "assay": "Test C postemergence, plant response rating", "details": "for Plant response rating, Lambsquarters: scale 0 to 100; for Lambsquarters plant response rating: scale 0 to 100 (0 no effect, 100 complete control)", "method_in_brief": "as §1"}, "[8]": {"test_system": "ryegrass, Italian (Italian ryegrass, Lolium multiflorum)", "assay": "Test C postemergence, plant response rating", "details": "for Plant response rating, Ryegrass, Italian: scale 0 to 100; for Ryegrass, Italian plant response rating: scale 0 to 100 (0 no effect, 100 complete control)", "method_in_brief": "as §1"}, "[9]": {"test_system": "galium (catchweed bedstraw, Galium aparine)", "assay": "Test A postemergence, visual injury rating", "details": "0 is no effect, 100 is complete control", "method_in_brief": "(§2)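 Scoring: eye-based comparison with untreated controls, 0 for no effect through 100 for complete control, at about day 10. Treatments: directed soil spray preemergence; foliar spray postemergence on 2–10 cm plants at the one- to two-leaf stage. Medium: loam soil with sand.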"}, "[10]": {"test_system": "Italian ryegrass (Lolium multiflorum)", "assay": "Test A postemergence, visual injury rating", "details": "0 is no effect, 100 is complete control", "method_in_brief": "as §2"}, "corn (Zea mays)": {"test_system": "corn (Zea mays)", "assay": "Test A postemergence, visual injury rating", "details": "0 is no effect, 100 is complete control", "method_in_brief": "as §2"}, "kochia (Kochia scoparia)": {"test_system": "kochia (Kochia scoparia)", "assay": "Test A postemergence, visual injury rating", "details": "0 is no effect, 100 is complete control", "method_in_brief": "as §2"}, "[11]": {"test_system": "wheat (Triticum aestivum)", "assay": "Test A postemergence, visual injury rating", "details": "0 is no effect, 100 is complete control", "method_in_brief": "as §2"}, "[12]": {"test_system": "barnyardgrass (Echinochloa crus-galli)", "assay": "Test A postemergence, visual injury rating", "details": "0 is no effect, 100 is complete control", "method_in_brief": "as §2"}, "[13]": {"test_system": "pigweed (Amaranthus retroflexus)", "assay": "Test A postemergence, visual injury rating", "details": "0 is no effect, 100 is complete control", "method_in_brief": "as §2"}, "[14]": {"test_system": "ragweed (common ragweed, Ambrosia elatior)", "assay": "Test A postemergence, visual injury rating", "details": "0 is no effect, 100 is complete control", "method_in_brief": "as §2"}, "[15]": {"test_system": "blackgrass (Alopecurus myosuroides)", "assay": "Test A postemergence, visual injury rating", "details": "0 is no effect, 100 is complete control", "method_in_brief": "as §2"}, "[16]": {"test_system": "giant foxtail (Setaria faberii)", "assay": "Test A postemergence, visual injury rating", "details": "0 is no effect, 100 is complete control", "method_in_brief": "as §2"}}, "data": [{"smiles": "O=C(OCCC(F)(F)F)c1c(Br)cccc1Oc1ncc(Br)cn1", "note": "[Compound 33]", "values": [{"measurement": "Plant response rating, Oat, Wild", "setting": "[1]; 16 g ai/ha", "result": 5}, {"measurement": "Plant response rating, Oat, Wild", "setting": "[1]; 31 g ai/ha", "result": 10}, {"measurement": "Oat, Wild plant response rating", "setting": "[1]; 62 g ai/ha", "result": 25}, {"measurement": "Oat, Wild plant response rating", "setting": "[1]; 125 g ai/ha", "result": 30}, {"measurement": "Plant response rating, Waterhemp", "setting": "[2]; 16 g ai/ha", "result": 90}, {"measurement": "Plant response rating, Waterhemp", "setting": "[2]; 31 g ai/ha", "result": 80}, {"measurement": "Waterhemp plant response rating", "setting": "[2]; 62 g ai/ha", "result": 100}, {"measurement": "Waterhemp plant response rating", "setting": "[2]; 125 g ai/ha", "result": 100}, {"measurement": "Plant response rating, Foxtail, Giant", "setting": "[3]; 16 g ai/ha", "result": 5}, {"measurement": "Plant response rating, Foxtail, Giant", "setting": "[3]; 31 g ai/ha", "result": 10}, {"measurement": "Foxtail, Giant plant response rating", "setting": "[3]; 62 g ai/ha", "result": 10}, {"measurement": "Foxtail, Giant plant response rating", "setting": "[3]; 125 g ai/ha", "result": 20}, {"measurement": "Plant response rating, Soybean", "setting": "soybean (Glycine max); 16 g ai/ha", "result": 25}, {"measurement": "Plant response rating, Soybean", "setting": "soybean (Glycine max); 31 g ai/ha", "result": 65}, {"measurement": "Soybean plant response rating", "setting": "soybean (Glycine max); 62 g ai/ha", "result": 30}, {"measurement": "Soybean plant response rating", "setting": "soybean (Glycine max); 125 g ai/ha", "result": 55}, {"measurement": "Plant response rating, Velvetleaf", "setting": "[4]; 16 g ai/ha", "result": 25}, {"measurement": "Plant response rating, Velvetleaf", "setting": "[4]; 31 g ai/ha", "result": 50}, {"measurement": "Velvetleaf plant response rating", "setting": "[4]; 62 g ai/ha", "result": 65}, {"measurement": "Velvetleaf plant response rating", "setting": "[4]; 125 g ai/ha", "result": 75}, {"measurement": "Plant response rating, Ragweed", "setting": "[5]; 16 g ai/ha", "result": 40}, {"measurement": "Plant response rating, Ragweed", "setting": "[5]; 31 g ai/ha", "result": 30}, {"measurement": "Ragweed plant response rating", "setting": "[5]; 62 g ai/ha", "result": 50}, {"measurement": "Ragweed plant response rating", "setting": "[5]; 125 g ai/ha", "result": 60}, {"measurement": "Plant response rating, Chickweed", "setting": "[6]; 16 g ai/ha", "result": 50}, {"measurement": "Plant response rating, Chickweed", "setting": "[6]; 31 g ai/ha", "result": 55}, {"measurement": "Chickweed plant response rating", "setting": "[6]; 62 g ai/ha", "result": 85}, {"measurement": "Chickweed plant response rating", "setting": "[6]; 125 g ai/ha", "result": 85}, {"measurement": "Plant response rating, Lambsquarters", "setting": "[7]; 16 g ai/ha", "result": 60}, {"measurement": "Plant response rating, Lambsquarters", "setting": "[7]; 31 g ai/ha", "result": 70}, {"measurement": "Lambsquarters plant response rating", "setting": "[7]; 62 g ai/ha", "result": 80}, {"measurement": "Lambsquarters plant response rating", "setting": "[7]; 125 g ai/ha", "result": 90}, {"measurement": "Plant response rating, Ryegrass, Italian", "setting": "[8]; 16 g ai/ha", "result": 0}, {"measurement": "Plant response rating, Ryegrass, Italian", "setting": "[8]; 31 g ai/ha", "result": 5}, {"measurement": "Ryegrass, Italian plant response rating", "setting": "[8]; 62 g ai/ha", "result": 5}, {"measurement": "Ryegrass, Italian plant response rating", "setting": "[8]; 125 g ai/ha", "result": 30}, {"measurement": "Galium plant response rating (0 to 100 scale)", "setting": "[9]; 125 g ai/ha", "result": 100}, {"measurement": "Galium plant response rating (0 to 100 scale)", "setting": "[9]; 500 g ai/ha", "result": 100}, {"measurement": "Ryegrass, Italian plant response rating (0 to 100 scale)", "setting": "[10]; 125 g ai/ha", "result": 30}, {"measurement": "Ryegrass, Italian plant response rating (0 to 100 scale)", "setting": "[10]; 500 g ai/ha", "result": 80}, {"measurement": "Corn plant response rating (0 to 100 scale)", "setting": "corn (Zea mays); 125 g ai/ha", "result": 30}, {"measurement": "Corn plant response rating (0 to 100 scale)", "setting": "corn (Zea mays); 500 g ai/ha", "result": 90}, {"measurement": "Kochia plant response rating (0 to 100 scale)", "setting": "kochia (Kochia scoparia); 125 g ai/ha", "result": 100}, {"measurement": "Kochia plant response rating (0 to 100 scale)", "setting": "kochia (Kochia scoparia); 500 g ai/ha", "result": 100}, {"measurement": "Wheat plant response rating (0 to 100 scale)", "setting": "[11]; 125 g ai/ha", "result": 20}, {"measurement": "Wheat plant response rating (0 to 100 scale)", "setting": "[11]; 500 g ai/ha", "result": 60}, {"measurement": "Barnyardgrass plant response rating (0 to 100 scale)", "setting": "[12]; 125 g ai/ha", "result": 80}, {"measurement": "Barnyardgrass plant response rating (0 to 100 scale)", "setting": "[12]; 500 g ai/ha", "result": 100}, {"measurement": "Pigweed plant response rating (0 to 100 scale)", "setting": "[13]; 125 g ai/ha", "result": 100}, {"measurement": "Pigweed plant response rating (0 to 100 scale)", "setting": "[13]; 500 g ai/ha", "result": 100}, {"measurement": "Ragweed plant response rating (0 to 100 scale)", "setting": "[14]; 125 g ai/ha", "result": 30}, {"measurement": "Ragweed plant response rating (0 to 100 scale)", "setting": "[14]; 500 g ai/ha", "result": 40}, {"measurement": "Blackgrass plant response rating (0 to 100 scale)", "setting": "[15]; 125 g ai/ha", "result": 60}, {"measurement": "Blackgrass plant response rating (0 to 100 scale)", "setting": "[15]; 500 g ai/ha", "result": 90}, {"measurement": "Foxtail, Giant plant response rating (0 to 100 scale)", "setting": "[16]; 125 g ai/ha", "result": 100}, {"measurement": "Foxtail, Giant plant response rating (0 to 100 scale)", "setting": "[16]; 500 g ai/ha", "result": 100}]}]}
